Data reported in patent US8980933B2, “Combretastatin analogs for use in the treatment of cancer” (Universitat Bayreuth, priority 2010, dated 2015).
“And” between values parts separate entries of the source, which are not always exact repeats. Identical values can stand only once.

Assays:
[1] = system: HT-29 colon carcinoma cells; test: MTT cell growth inhibition, HT-29; assay type: cell-based, human; details: for IC50 concentration: combretastatin A-4 resistant HT-29 cells; for cytotoxicity (comparison): multi-drug resistant HT-29 colon cancer cells
Protocol: The effects of the compounds 5b, 6b, 8a, and 8e according to the present invention and of the reference compound 25f (Wang et al., J. Med. Chem. 2002, 45, 1697-1711) on cells of the following human tumor cell lines were evaluated: 518A2 melanoma, HL-60 leukemia, HT-29 colon carcinoma, KB-V1/Vbl cervical carcinoma, and MCF-7/Topo breast carcinoma.
The HL-60 cells were obtained from the German Collection of Biological Material (DSMZ), Braunschweig, Germany; the human 518A2 melanoma cells as well as the testicular germ cell tumor cell lines H12.1 and 1411HP were cultured in the department of oncology and hematology, Medical Faculty of the Martin-Luther University, Halle, Germany; the KBV1/Vbl and the MCF-7/Topo cells were obtained from the Institute of Pharmacy of the University Regensburg, Germany; and the colon HT-29 cells from the University Hospital Erlangen, Germany. The HL-60 and the HT-29 cells were grown in RPMI-1640 medium supplemented with 10% fetal calf serum (FCS), 100 IU/mL penicillin G, 100 μg/mL streptomycin sulfate, 0.25 μg/mL amphotericin B and 250 μg/mL gentamycine (all from Gibco, Egenstein, Germany). The 518A2 and the KB-V1/Vbl cells were cultured in Dulbecco's Modified Eagle Medium (D-MEM, Gibco) containing 10% FCS, 100 IU/mL penicillin G, 100 μg/mL streptomycin sulfate, 0.25 μg/mL amphotericin B and 250 μg/mL gentamycine. The MCF-7/Topo cells were grown in E-MEM medium (Sigma) supplemented with 2.2 g/L NaHCO3, 110 mg/L sodium pyruvate and 5% FCS. The cells were maintained in a moisture-saturated atmosphere (5% CO2) at 37° C. in 75-mL culture flasks (Nunc, Wiesbaden, Germany). They were serially passaged following trypsinisation by 0.05% trypsin/0.02% EDTA (PAA laboratories, Clbe, Germany). Mycoplasma contamination was routinely monitored, and only mycoplasma-free cultures were used.
MTT [3-(4,5-dimethylthiazol-2-yl)-2,5-diphenyltetrazolium bromide](ABCR) was used to identify viable cells which reduce it to a violet formazan (Mosmann, J. Immunol. Methods 1983, 65, 55-63). HL-60 leukemia cells (5×10^5/mL), and cells (5×10^4/mL) of 518A2 melanoma, HT-29 colon, KB-V1/Vbl cervix and MCF-7/Topo breast carcinoma were seeded out in 96-well tissue culture plates and cultured for 24 h. Incubation (5% CO2, 95% humidity, 37° C.) of the cells following treatment with the test compounds was continued for 24, 48 or 72 h. Blank and solvent controls were treated identically. MTT in phosphate buffered saline (5 mg/mL) was added to a final concentration of 0.05% (HL-60, 518A2) or 0.1% (HT-29, KB-V1/Vbl, MCF-7/Topo). After 2 h the formazan precipitate was dissolved in 10% sodium dodecylsulfate in DMSO containing 0.6% acetic acid in the case of the HL-60 cells. For the adherent 518A2, KB-V1/Vbl, MCF-7/Topo and HT-29 cells the microplates were swiftly turned to discard the medium before adding the solvent mixture. The microplates were gently shaken in the dark for 30 min and absorbance at 570 nm and 630 nm (background) was measured with an ELISA plate reader. All experiments were carried out in quadruplicate; the percentage of viable cells was calculated as the mean±SD with controls set to 100%.

[2] = Toxicity / tolerability in mice; assay type: in vivo
Protocol: Prior to testing compound 5b, healthy animals of this type were treated with an ascending range of doses of 5b in order to establish a toxicity profile. […] Suitable dosages were then administered in further tests in a nude mouse xenograft model of a pair of germ cell tumor cell lines, the chemoresistant cell line 1411HP and the chemosensitive cell line H12.1. These cell lines retain their individual in vitro chemosensitivities to cisplatin when grown as xenograft tumors and so may serve as a model of the clinical situation of resistance to chemotherapy (Mueller et al. Cancer Res. 2003; Mueller et al. Tumor Biol. 2006).
Compounds 5b, 6b and 6f were also tested in terms of feasibility of oral administration. Mice received a single dose of 40 mg/kg body weight of 5b, 6b or 6f, respectively. […] Then compounds 6b or 6f were given peroral as dual-dose application on two consecutive days in accordance to the i.p. treatment scheme used for the regression trials but with a 2-fold higher dose of 2×40 mg/kg body weight.

518A2 cells = test: Mitochondrial membrane assay (JC-1), 518A2; assay type: cell-based, human; details: 5 μM, red/green fluorescence ratio relative to untreated controls (100%), mean ± SD
Protocol: Values represent means of four independent experiments±standard deviation.
Changes in mitochondrial membrane potential were determined by the Mitochondrial Membrane Detection Kit (Stratagene, La Jolla, Calif., USA) according to the manufacturer's procedure. 72 h following treatment with 5 μM of the test compounds, cell samples were centrifuged at 400 g for 5 min. The pellets were resuspended in 500 μL diluted JC-1 solution, incubated at 37° C. for 15 min (HL-60) and then centrifuged again for 5 min at 400 g. After washing, the pellets were resuspended in 100 μL PBS and transferred into the wells of a black 96-well plate. The red (λex=585 nm, λem=590 nm) and green (λex=510 nm, λem=527 nm) fluorescence intensities were measured and their ratio was calculated.

HL-60 cells [3] = test: TUNEL assay; assay type: cell-based, human; details: 10 μM; 16 h incubation
HL-60 cells [4] = test: ROS generation, NBT assay, HL-60; assay type: cell-based, human; details: 50 μM, relative to untreated controls (1%), mean ± SD
Protocol: The generation of reactive oxygen species (ROS) in tumor cells is a sign of cellular stress resulting in severe damage of cellular components such as DNA, lipids or proteins.
For the NBT assay, HL-60 cells (0.5·10^6/mL) were plated in 96-well tissue culture plates, and test compounds were added after 24 h incubation at 37° C. to achieve a final concentration of 50 μM. […] After removal of the cell medium by centrifugation, the cells in each well were resuspended in 100 μL 0.1% NBT, and the plates were placed in the incubator for 1 h. The reduced NBT was solubilized with 100 μl 2 M KOH and 130 μl DMSO for 30 min. The absorbance was measured for each well at 630 and 405 nm (background) using an ELISA plate reader. The adherent 518A2 cells (0.5·10^4/mL) were seeded out in 96-well tissue culture plates after trypsinization and incubation for 24 h at 37° C. to allow attachment, then treated similarly, only that the medium was removed prior to incubation with NBT for 4 h. All experiments were carried out in quadruplicate.

Compound	IC50 concentration [1]	cytotoxicity (comparison) [1]	toxicity after oral administration ([2]; peroral dual-dose 2×40 mg/kg on two consecutive days)	toxicity after oral administration ([2]; single dose 40 mg/kg oral)	toxicity after oral administration ([2]; single dose 60 mg/kg peroral)	Intact mitochondria [%] in 518A2 cells after 72 h (518A2 cells) [%]	apoptotic (TUNEL-positive) cells (HL-60 cells [3])	NBT Reduction [%] in HL-60 cells after 24 h (HL-60 cells [4])	toxicity profile ([2]; healthy mice, ascending range of doses)
COc1ccc(-c2c(-c3cc(Br)c(OC)c(OC)c3)ncn2C)cc1N [compound 6b, 1-methyl-5-(3-amino-4-methoxyphenyl)-4-(3-bromo-4,5-dimethoxyphenyl)-imidazole]	single-digit nanomolar range	able to overcome the drug resistance in these cancer cells in vitro	well tolerated and induced only a transient and marginal loss of body weight	No signs of toxicity were observed	No signs of toxicity were observed	80 ± 9	about 60%	3.8 ± 0.3%	–
COc1ccc(-c2c(-c3cc(Cl)c(OC)c(OC)c3)ncn2C)cc1N [compound 5b, 1-methyl-5-(3-amino-4-methoxyphenyl)-4-(3-chloro-4,5-dimethoxyphenyl)-imidazole]	single-digit nanomolar range	able to overcome the drug resistance in these cancer cells in vitro	–	No signs of toxicity were observed	–	80 ± 9	about 60%	4.4% and 4.4 ± 0.6%	very well tolerated by the mice even at relatively high concentrations
